According to patent US12685309B2, “Agrochemical formulations” (BASF CORPORATION, priority 2020, dated 2026):

Conditions: for Appearance of mixture with water (solubility): 400 g mixed with water and stirred, 400 g/l mixture
Source text: 400 g of Dicamba with the 93.8 wt % purity as defined above in the experimental part were mixed with water and stirred to obtain a 400 g/l mixture of dicamba.
400 g of dicamba with a purity of 98 wt % were mixed with water.

Question: Which results are given for `COc1c(Cl)ccc(Cl)c1C(=O)[O-].[K+]` [Dicamba with the 93.8 wt % purity, potassium dicamba]?
Answer: Appearance of mixture with water (solubility): turbid mixture; Stability of the aqueous mixture on storage (400 g/l mixture in water, room temperature, two weeks): serum formation and sedimentation of the undissolved components

Question: For `COc1c(Cl)ccc(Cl)c1C(=O)O` [dicamba with a purity of 98 wt %, 3,6-dichloro-2-methoxybenzoic acid], which “Appearance of mixture with water (solubility)” value is on record?
Answer: Its value is “clear solution”.
